From patent US6969721B2, “Tricyclic-2-pyridone compounds useful as HIV reverse transcriptase inhibitors” (Bristol-Myers Squibb Pharma, priority 2000, dated 2005) come the findings set out here.

Converted amounts (≈) assume the structure as drawn.

The subject of the experiment is HIV-1 (RF). Put plainly: HIV RNA assay, microplate based compound evaluation in HIV-1 infected MT-2 cells. It counts as cell-based. The settings on record: Human immunodeficiency virus 1, MT2, 72 h; HIV-1 (RF) in MT-2 cells, 3 days culture; virus dilutions selected to give this value; read-out: IC90 value (concentration of compound required to reduce the HIV RNA level by 90%). The procedure:
MT-2 and MT-4 cells were maintained in RPMI 1640 supplemented with 5% fetal calf serum (FCS) for MT-2 cells or 10% FCS for MT-4 cells, 2 mM L-glutamine and 50 μg/mL gentamycin, all from Gibco. HIV-1 RF was propagated in MT-4 cells in the same medium. Virus stocks were prepared approximately 10 days after acute infection of MT-4 cells and stored as aliquots at −70° C. Infectious titers of HIV-1(RF) stocks were 1-3×10^7 PFU (plaque forming units)/mL as measured by plaque assay on MT-2 cells (see below) Each aliquot of virus stock used for infection was thawed only once.
For evaluation of antiviral efficacy, cells to be infected were subcultured one day prior to infection. […]
Cell lysates or purified RNA in 3 M or 5 M GED were mixed with 5 M GED and capture probe to a final guanidinium isothiocyanate concentration of 3 M and a final biotin oligonucleotide concentration of 30 nM. […] Immobilized alkaline phosphatase activity was detected by addition of 100 μL of 0.2 mM 4-methylumbelliferyl phosphate (MUBP, JBL Scientific) in buffer (2.5 M diethanolamine pH 8.9 (JBL Scientific), 10 MM MgCl2, 5 mM zinc acetate dihydrate and 5 mM N-hydroxyethyl-ethylene-diamine-triacetic acid). […] Fluorescence at […] was measured using a microplate fluorometer (Dynateck) exciting at […]. […]

For `Nc1ccn([C@H]2CC[C@@H](CO)O2)c(=O)n1` [ddC, 2′,3′-dideoxycytidine], the IC90 came to 0.2 µg/mL (≈ 0.947 µM).
